Source: patent US11712434B2, “Compound having anti-cancer effect, and preparation method therefor and use thereof” (3D MEDICINES (BEIJING) CO., LTD., priority 2016, dated 2023)
One block for each molecule: values may come before it.

Columns and labels:
Assay in all cases: Cell proliferation assay (Alamar Blue)
Type in all cases: cell-based
CCRF-CEM = CCRF-CEM tumor cell line, 6 days culture
Method: (§1) 1. Instruments and Materials • Thermo 311 CO2 incubator; Haier biosafety cabinet; Molecular Devices microplate reader; Xiangyi brand L530 desktop low speed centrifuge; Olympus IX51 inverted fluorescence microscope, DMEM, RPMI 1640, MEM, DMEM/F12 1:1 medium, Fetal bovine serum, 0.25% trypsin solution, phosphate buffer (Thermo Fisher Shanghai Co., Ltd.); sigma dimethyl sulfoxide (DMSO), resazurin; 54 commercial tumor cell lines (including 26 liver cancer cell lines). Experimental drugs: compounds 1-12 and active drug Linifanib; chemotherapeutic drug Doxorubicin (HY-15142; Shanghai Qianyuan Biomedical Technology Co., Ltd.).
(§2) 2. Experimental Methods • 2.1 Cultivation of Different Cell Lines • 54 cell lines were cultured in a culture medium containing fetal bovine serum and placed in a 5% CO2 incubator at 37° C. for incubation. The cells were all grown in an adherent state, and the growth was observed under an inverted microscope, and subculture was performed when the cell confluence rate reached 80%-90%. The proportion and quantity of passage were determined by experimental needs. The ratio of subculture of this cell line was generally 1:2^˜1:3. • 2.2 Inhibition Effect on the Proliferation of Different Tumor Cell Lines • Cell test: 54 cell lines in logarithmic growth phase were inoculated in 96-well culture plates at 500^˜1×10^4/well (the optimal seeding density of each cell line was determined in pre-experiment), After incubating at 37° C. for 4 h in a 5% CO2 humidification incubator, added 10 μL of compounds 1-12 or Linifanib to each well, and tested 9 drug concentration gradients for each compound (diluted from the highest concentration of the test by 3.16 times). The solubility of each compound was different at a starting concentration of 100 or 30 μM, respectively. The QC reference compound Doxorubicin was added simultaneously to each cell line test, and the final drug concentrations were 10, 3.16, 1, 0.31, 0.1, 0.03, 0.01, 0.003, and 0.001 μM, respectively. In addition, a positive control group (100% inhibition) and a negative control group (0% inhibition) were set at the same time. The drug group was repeated for 2 wells per concentration, and the positive control group and the negative control group were repeated for 6 wells. After the culture was continued for 6 days in the incubator, AlamarBlue test operation was followed; • AlamarBlue test procedure: Incubated with 10 μL of AlamarBlue reagent per well for 1-4 h, shook for 1-2 min, MD microplate reader EX: 560 nm, EM: 590 nm wavelength to measure fluorescence, recorded the results, calculated the cell inhibition rate of the compound of the invention. Cell inhibition rate (%)=(A0% inhibition−A administration)/(A0% inhibition−A100% inhibition)×100%, and then using the method of nonlinear regression using GraphPad Prism 5.0 or MATILAB software (usually using four parameters) to graph and obtain a drug dose response curve to obtain an IC50 value of the compound of the present invention acting on a cancer cell line.

DLD1 = DLD1 tumor cell line, 6 days culture
Method: as §1, §2

DU145 = DU145 tumor cell line, 6 days culture
Method: as §1, §2

HCCLM3 = HCCLM3 tumor cell line, 6 days culture
Method: as §1, §2

HEPG2 = HEPG2 liver cancer cell line, 6 days culture
Method: as §1, §2

HUH6 = HUH6 liver cancer cell line, 6 days culture
Method: as §1, §2

HuTu80 = HuTu80 tumor cell line, 6 days culture
Method: as §1, §2

JHH1 = JHH1 liver cancer cell line, 6 days culture
Method: as §1, §2

JHH2 = JHH2 liver cancer cell line, 6 days culture
Method: as §1, §2

JHH4 = JHH4 liver cancer cell line, 6 days culture
Method: as §1, §2

JHH5 = JHH5 liver cancer cell line, 6 days culture
Method: as §1, §2

JHH7 = JHH7 liver cancer cell line, 6 days culture
Method: as §1, §2

KASUMI-1 = KASUMI-1 (leukemia cells), 6 days culture
Method: as §1, §2

KM12 = KM12 tumor cell line, 6 days culture
Method: as §1, §2

LNCAP-clone-FGC = LNCAP-clone-FGC tumor cell line, 6 days culture
Method: as §1, §2

Li-7 = Li-7 liver cancer cell line, 6 days culture
Method: as §1, §2

MFM-223 = MFM-223 tumor cell line, 6 days culture
Method: as §1, §2

NCI-H1648 = NCI-H1648 tumor cell line, 6 days culture
Method: as §1, §2

NCI-H1703 = NCI-H1703 (lung cancer cells), 6 days culture
Method: as §1, §2

NCI-H2170 = NCI-H2170 tumor cell line, 6 days culture
Method: as §1, §2

NCI-H661 = NCI-H661 tumor cell line, 6 days culture
Method: as §1, §2

SNU182 = SNU182 liver cancer cell line, 6 days culture
Method: as §1, §2

SNU387 = SNU387 liver cancer cell line, 6 days culture
Method: as §1, §2

SNU423 = SNU423 liver cancer cell line, 6 days culture
Method: as §1, §2

SNU475 = SNU475 liver cancer cell line, 6 days culture
Method: as §1, §2

SNU761 = SNU761 liver cancer cell line, 6 days culture
Method: as §1, §2

SW620 = SW620 tumor cell line, 6 days culture
Method: as §1, §2

- IC50 (CCRF-CEM; Homo sapiens, 144 h): > 100 µM
- IC50 (DLD1; Homo sapiens, DLD-1, 144 h): > 100 µM
- IC50 (DU145; Homo sapiens, DU-145, 144 h): > 100 µM
- IC50 (HCCLM3; Homo sapiens, 144 h): > 100 µM
- IC50 (HEPG2; Homo sapiens, 144 h): 11.5 µM
- IC50 (HUH6; Homo sapiens, HuH-6, 144 h): > 100 µM
- IC50 (LNCAP-clone-FGC; Homo sapiens, 144 h): > 100 µM
- IC50 (NCI-H1648; Homo sapiens, 144 h): > 100 µM
- IC50 (NCI-H1703; Homo sapiens, 144 h): 190 nM
- IC50 (NCI-H2170; Homo sapiens, 144 h): 75.3 µM
- IC50 (NCI-H661; Homo sapiens, 144 h): > 100 µM
- IC50 (SNU182; Homo sapiens, SNU-182, 144 h): > 100 µM
- IC50 (SNU387; Homo sapiens, SNU-387, 144 h): > 100 µM
- IC50 (SNU423; Homo sapiens, SNU-423, 144 h): > 100 µM
- IC50 (SNU475; Homo sapiens, SNU-475, 144 h): > 100 µM
- IC50 (SNU761; 144 h): > 100 µM
- IC50 (SW620; Homo sapiens, SW-620, 144 h): 65.3 µM
SMILES: Cc1ccc(F)c(NC(=O)Nc2ccc(-c3cccc4[nH]nc(NC(=O)CCCCCCCCCCCNC(=O)C[C@H](N)C(=O)N[C@@H](CCC(=O)N[C@@H](CCC(=O)N[C@@H](CCC(=O)N[C@@H](CCC(=O)O)C(=O)O)C(=O)O)C(=O)O)C(=O)O)c34)cc2)c1 [Compound 8]
- IC50 (HuTu80; Homo sapiens, 144 h): 50.6 µM
- IC50 (JHH1; 144 h): > 100 µM
- IC50 (JHH2; JHH-2, 144 h): > 100 µM
- IC50 (JHH4; JHH-4, 144 h): > 100 µM
- IC50 (JHH5; 144 h): > 100 µM
- IC50 (JHH7; 144 h): 94.9 µM
- IC50 (KASUMI-1; Homo sapiens, 144 h): 390 nM
- IC50 (KM12; Homo sapiens, 144 h): > 100 µM
- IC50 (Li-7; 144 h): > 100 µM
- IC50 (MFM-223; Homo sapiens, 144 h): > 100 µM

SMILES: Cc1ccc(F)c(NC(=O)Nc2ccc(-c3cccc4[nH]nc(NC(=O)CCCCCCCCCCCNC(=O)C[C@H](N)C(=O)N[C@@H](CCC(=O)N[C@@H](CCC(=O)N[C@@H](CCC(=O)N[C@@H](CCC(=O)N[C@@H](CCC(=O)N[C@@H](CCC(=O)N[C@@H](CCC(=O)N[C@@H](CCC(=O)N[C@@H](CCC(=O)O)C(=O)O)C(=O)O)C(=O)O)C(=O)O)C(=O)O)C(=O)O)C(=O)O)C(=O)O)C(=O)O)c34)cc2)c1 [Compound 9]
- IC50 (CCRF-CEM): > 100 µM
- IC50 (DLD1): > 100 µM
- IC50 (DU145): > 100 µM
- IC50 (HCCLM3): > 100 µM
- IC50 (HEPG2): 33.6 µM
- IC50 (HUH6): > 100 µM
- IC50 (HuTu80): 90.4 µM
- IC50 (JHH1): > 100 µM
- IC50 (JHH2): > 100 µM
- IC50 (JHH4): > 100 µM
- IC50 (JHH5): > 100 µM
- IC50 (JHH7): > 100 µM
- IC50 (KASUMI-1): 870 nM
- IC50 (KM12): > 100 µM
- IC50 (LNCAP-clone-FGC): > 100 µM
- IC50 (Li-7): > 100 µM
- IC50 (MFM-223): > 100 µM
- IC50 (NCI-H1648): > 100 µM
- IC50 (NCI-H1703): 350 nM
- IC50 (NCI-H2170): > 100 µM
- IC50 (NCI-H661): > 100 µM
- IC50 (SNU182): > 100 µM
- IC50 (SNU387): > 100 µM
- IC50 (SNU423): > 100 µM
- IC50 (SNU475): > 100 µM
- IC50 (SNU761): > 100 µM
- IC50 (SW620): > 100 µM
